Patent US20020137162A1, “Antisense oligonucleotide inhibition of specific histone deacetylase isoforms” (priority 2000, published 2002)
d = 2'-deoxy (DNA); m = 2'-O-methyl

Columns and labels:
human HDAC-6 = test: Antisense ODN screen, HDAC-6 RNA, T24 cells; format: cell-based; settings: 100 nM, 24 hours, Northern blot
Procedure: Thirteen phosphorothloate ODNs containing sequences complementary to the 5′ or 3′ untranslated regions of the human HDAC-6 gene (GenBank Accession No. AJ011972) were screened as above. […] HDAC-6MM oligo was created as a control; compared to the antisense oligo, it contains a 7-base mismatch.
(§1) Briefly, human A549 and/or T24 human bladder carcinoma cells were seeded in 10 cm tissue culture dishes one day prior to oligonucleotide treatment. The cell lines were obtained from the American Type Culture Collection (ATCC) (Manassas, Va.) and were grown under the recommended culture conditions. Before the addition of the oligonucleotides, cells were washed with PBS (phosphate buffered saline). Next, lipofectin transfection reagent (GIBCO BRL Mississauga, Ontario, Calif.), at a concentration of 6.25 μg/ml, was added to serum free OPTIMEM medium (GIBCO BRL, Rockville, Md.), which was then added to the cells. The oligonucleotides to be screened were then added directly to the cells (i.e., one oligonucleotide per plate of cells). Mismatched oligonucleotides were used as controls. The same concentration of oligonucleotide (e.g., 50 nM) was used per plate of cells for each oligonucleotide tested.
(§2) Cells were harvested, and total RNAs were analyzed by Northern blot analysis. Briefly, total RNA was extracted using RNeasy miniprep columns (QIAGEN). […]

T24 [1] = test: Apoptosis, Cell Death Detection ELISA; format: cell-based, human; settings: fold over non-specific background, TSA at 100 ng/ml
Procedure: (§3) In order to determine the effect of HDAC OSDNs on cell growth and cell death through apoptosis, A549 or T24 cells, MDAmb231 cells, and HMEC cells (ATCC, Manassas, Va.) were treated with HDAC OSDNs as previously described.
(§4) For the apoptosis study, cells were analyzed using the Cell Death Detection ELISA ^PLUSkit (Roche Diagnostic GmBH, Mannheim, Germany) according to the manufacturer's directions. Typically, 10,000 cells were plated in 96-well tissue culture dishes for 2 hours before harvest and lysis. Each sample was analyzed in duplicate. ELISA reading was done using a MR700 plate reader (DYNEX Technology, Ashford, Middlesex, England) at 410 nm. The reference was set at 490 nm.

A549 [2] = test: Apoptosis, Cell Death Detection ELISA; format: cell-based, human; settings: fold over non-specific background, TSA at 100 ng/ml
Procedure: as §3, §4

HMEC [3] = test: Apoptosis, Cell Death Detection ELISA; format: cell-based, human; settings: fold over non-specific background, TSA at 100 ng/ml
Procedure: as §3, §4

MDAmb231 [4] = test: Apoptosis, Cell Death Detection ELISA; format: cell-based, human; settings: fold over non-specific background, TSA at 100 ng/ml
Procedure: as §3, §4

human cancer cells = test: Cell growth and apoptosis, summary for cancer cells; format: cell-based; settings: Tables 3 and 4
Procedure: as §3, §4
(§5) Cells were harvested and cell numbers counted by trypan blue exclusion using a hemocytometer. Percentage of inhibition was calculated as (100—AS cell numbers/control cell numbers) %.

HDAC-6 protein = test: Western blot of HDAC isotype protein expression in A549 cells, HDAC-6; format: cell-based, human; settings: 50 nM, 48 hours
Procedure: OSDN treatment conditions were as previously described.
Cells were lysed in buffer containing 1% Triton X-100, 0.5% sodium deoxycholate, 5 mM EDTA, 25 mM Tris-HC1, pH 7.5, plus protease inhibitors. Total protein was quantified by the protein assay reagent from Bio-Rad (Hercules, Calif.). 100 ug of total protein was analyzed by SDS-PAGE. Next, total protein was transferred onto a PVDF membrane and probed with various HDAC-specific primary antibodies. Rabbit anti-HDAC-1 (H-51), anti-HDAC-2 (H-54) antibodies (Santa Cruz Biotechnologies, Santa Cruz, Calif.) were used at 1:500 dilution. Rabbit anti-HDAC-3 antibody (Sigma, St. Louis, Mo.) was used at a dilution of 1:1000. Anti-HDAC-4 antibody was prepared as previously described (Wang, S. H. et al., (1999) Mol. Cell. Biol. 19:7816-27), and was used at a dilution of 1:1000. Anti-HDAC-6 antibody was raised by immunizing rabbits with a GST fusion protein containing a fragment of HDAC-6 protein (amino acid #990 to #1216, GenBank Accession No. AAD29048). Rabbit antiserum was tested and found only to react specifically to the human HDAC-6 isoform. HDAC-6 antiserum was used at 1:500 dilution in Western blots to detect HDAC-6 in total cell lysates. Horse Radish Peroxidase conjugated secondary antibody was used at a dilution of 1:5000 to detect primary antibody binding. […]

T24 [5] = test: Cell growth inhibition, trypan blue cell count; format: cell-based, human; settings: T24 cancer cells, 50 nM, 72 hours
Procedure: as §3, §5

A549 [6] = test: Cell growth inhibition, trypan blue cell count; format: cell-based, human; settings: A549 cancer cells, 50 nM, 72 hours
Procedure: as §3, §5

HMEC [7] = test: Cell growth inhibition, trypan blue cell count; format: cell-based, human; settings: HMEC normal cells, 50 nM, 72 hours
Procedure: as §3, §5

A549 cells = test: Growth in soft agar, colony count; format: cell-based, human; settings: colonies counted after three weeks
Procedure: 1.3 g granulated agar (DIDFCO) was added to 100 ml deionized water and boiled in a microwave to sterilize. The boiled agar was held at 55 C until further use. Iscove's Modified Dulbecco×s Medium (GIBCO/BRL), 100× Penicillin-Streptomycin-Glutamine (GIBCO/BRL) and fetal bovine serum (medicorp) were pre-warmed at 37 C. To 50 ml sterile tubes was added 9 ml Isove's medium, 2 ml fetal bovine serum and 0.2 ml 100× Pen-Strep-Gln. Then 9 ml 55 C 1.3% agar was added to each tube. The tube contents were mixed immediately, avoiding air bubbles, and 2.5 ml of the mixture was poured into each sterile 6 cm petri dish to form a polymerized bottom layer. Dishes with polymerized bottom layers were then put in a CO2 incubator at 37 C until further use. In 50 ml sterile tubes were prewarmed at 37 C for each 4 cell lines/samples, 20 ml Iscove's medium, 0.4 ml 100× Pen-Strep-Gln and 8 ml fetal bovine serum. Cells were trypsinized and counted by trypan blue staining and 20,000 cells were aliquotted into a sterile 15 ml tube. To the tube was then added DMEM with low glucose (GIBCO/BRL)+10% fetal bovine serum+Pen-Strep-Gln to a final volume of 1 ml. To the prewarmed 37 C mix in the 50 ml tube was quickly added 8 ml 55 C 1.3% agar, which was then mixed well. […] Plates were wrapped up in foil paper and incubated in a CO2 incubator at 37° C. for three weeks, at which time colonies in agar are counted.

p21 protein = test: Western blot of p21 protein in A549 cells; format: cell-based, human
Procedure: Experiments were also conducted to examine the affect of HDAC antisense oligonucleotides on HDAC protein expression. In A549 cells, treatment with HDAC-4 antisene oligonucleotides results in a dramatic increase in the level of p21 protein (FIG. 15).

human HDAC-4 = test: Antisense ODN screen, HDAC-4 RNA, T24 cells; format: cell-based; settings: 100 nM, 24 hours, Northern blot
Procedure: Seventeen phosphorothioate ODNs containing sequences complementary to the 5′ or 3′ UTR of the human HDAC-4 gene (GenBank Accession No. AB006626) were screened as above. […] HDAC-4 MM1 and MM2 oligonucleotides were created as controls; compared to the antisense oligonucleotides, they each contain a 6-base mismatch.
as §1, §2

MDAmb231 [8] = test: Cell growth inhibition, trypan blue cell count; format: cell-based, human; settings: MDAmb231 cancer cells, 50 nM, 72 hours
Procedure: as §3, §5

Substance | antisense activity to human HDAC-6 (human HDAC-6) | Apoptosis After 48 Hour Treatment (T24 [1]) | Apoptosis After 48 Hour Treatment (A549 [2]) | Apoptosis After 48 Hour Treatment (HMEC [3]) | Apoptosis After 48 Hour Treatment (MDAmb231 [4]) | growth arrest and apoptosis of human cancer cells (human cancer cells) | HDAC-6 protein expression (HDAC-6 protein) | Growth Inhibition (AS vs. MM) (T24 [5]) | Growth Inhibition (AS vs. MM) (A549 [6]) | Growth Inhibition (AS vs. MM) (HMEC [7]) | growth of A549 cells in soft agar (A549 cells) | level of p21 protein (p21 protein) | antisense activity to human HDAC-4 (human HDAC-4) | Growth Inhibition (AS vs. MM) (MDAmb231 [8])
5′-CAGGCTGGAATGAGCTACAG-3′ (chemistry not given here) [HDAC-6 AS] | antisense activity | − (“−”: <= 2x fold over non-specific background) | − (“−”: <= 2x fold over non-specific background) | − (“−”: <= 2x fold over non-specific background) | − (“−”: <= 2x fold over non-specific background) | no effect | specifically inhibits | − (“−”: no inhibition) | − (“−”: no inhibition) | − (“−”: no inhibition) | do not | – | – | –
5-GCTGCCTGCCGTGCCCACCC-3′ (sugars from the 5' end m4 d12 m4, all phosphorothioate, methylation of C and T or U not given here) [HDAC-4 AS1] | – | + (“+”: 2-3X fold) | +++ (“+++”: 5-8X fold) | − (“−”: <= 2x fold over non-specific background) | ++ (“++”: 3-5X fold) | – | – | ++ (“++”: 50-75% inhibition) | +++ (“+++”: >75% inhibition) | – | – | induces the expression | antisense activity | ++ (“++”: 50-75% inhibition)
